Assay results from PMC10808720 (Frontiers in Pharmacology, 2024).

How the values were obtained:
[1] = Cytotoxicity assay (AlamarBlue); assay type: cell-based, Human; details: human, A549 cells
Description: The cytotoxicity of the molecules was analyzed using the commercial kit AlamarBlue® (Invitrogen, Ref. DAL1025) according to the manufacturer’s instructions. Briefly, A549 cells were seeded at a density of 5 × 10^3 cells per well in 96-well plates, and decreasing serial dilutions of each molecule were diluted in 100 μL of DMEM starting at 200 μM. The cells were then incubated at 37°C for 48 h following the manufacturer’s protocol. The cytotoxic concentration 50% (CC50) value was obtained using the statistical software GraphPad Prism 6. The assay was performed in duplicate.

[2] = test system: wild-type HAdV5; assay: HAdV DNA quantification by qPCR; assay type: cell-based, human adenovirus (HAdV5); details: 10-fold IC50; A549; 24 h; vs DMSO control
Description: For DNA quantification, A549 cells (1.5 × 10^5 cells/well in a 24-well plate) were incubated for 24 h in 500 μL of complete DMEM and were infected with wild-type HAdV5 (MOI 100 vp/cell) after observing more than 90% of confluency. Infected cells were incubated for 24 h at 37°C in 500 μL of either complete DMEM containing 10-fold IC50 concentration of the compounds obtained in the plaque assay or the same volume of DMSO (positive control). All samples were prepared in duplicate. After 24 h of incubation at 37°C, DNA was purified from the cell lysate with the E.Z.N.A.® Tissue DNA Kit (Omega Bio-tek, Norcross, GA) following the manufacturer’s instructions. PCR conditions, primers, and probes were as described by [Henke-Gendo et al. (2012)]. Human glyceraldehyde-3-phosphate dehydrogenase (GAPDH) gene was used as an internal control. GAPDH oligonucleotide sequences and conditions were as previously described by [Rivera et al. (2004)].
For quantification, gene fragments from hexons, and GAPDH were cloned into the pGEM-T Easy vector (Promega) and known concentrations of the template were used to generate a standard curve in parallel for each experiment, as previously reported ([Sanchez-Cespedes et al., 2016]). All assays were performed in thermal cycler LightCycler® 96 System (Roche).

[3] = test system: HAdV5; assay: HAdV-mediated endosome disruption (α-sarcin co-delivery, HPG incorporation); assay type: cell-based, human adenovirus (HAdV5)
Description: A549 cells (2 × 10^4 cells/well) were incubated in DMEM without cysteine or methionine supplemented with 10% dialyzed FBS [DMEM(−)] in black 96-well plates for 1 h prior to infection. Three-fold serial dilutions (0.45 ng–1,000 ng) of HAdV5, or AdV2ts1 were preincubated with cells in the presence of 10-fold IC50 concentration of the compounds obtained in the plaque assay or the same volume of DMSO for positive control for 1 h. The medium was then removed and replaced with 50 μL DMEM(−) containing 0.1 mg/ml α-sarcin (Santa Cruz Biotechnology, Dallas, Texas, USA) and drug mixtures. After 1 h at 37°C, the Click-iT L-homopropargylglycine (HPG) Alexa Fluor 488 Protein Synthesis Assay Kits (Invitrogen) was used to analyse protein synthesis according to the manufacturer’s instructions. The incorporation of the amino acid analogue of methionine HPG containing Alexa Fluor 488 azide was measured using a Typhoon 9410 imager (GE Healthcare Life Sciences) and calculated by subtracting the background level of the control well containing HPG and α-sarcin but not the virus (100% incorporation).

[4] = test system: HCMV; assay: Impact on HCMV replication (qPCR of HCMV DNA in HFF); assay type: cell-based, human cytomegalovirus; details: 2-fold IC50 (HAdV plaque assay), 72 h
Description: To test the anti-HCMV activity of these rotenolone-related compounds, human foreskin fibroblasts (HFF; ATCC, Manassas, VA) were seeded in a 24-well plate (8.3 × 10^4 cells/well), infected with HCMV (MOI 0.05 vp/cell), and incubated in complete DMEM in the presence of either 2-fold IC50 concentration of each compound obtained in the plaque assay against HAdV or the same volume of DMSO (positive control) in duplicate. The cells were incubated for 72 h at 37°C and 5% CO2 and HCMV DNA was purified from the cell lysate using E.Z.N.A Tissue DNA Kit (Omega Biotek, Norcross, GA, USA) following the manufacturer’s instructions. The qPCR primers, conditions, and protocols were the same as previously reported ([Mazzotta et al., 2020b]).

C=C(C)[C@H]1Cc2c(ccc3c2O[C@@H]2COc4cc(OC)c(OC)cc4[C@@H]2C3=O)O1 [Rotenone, (2R,6aS,12aS)-8,9-dimethoxy-2-(prop-1-en-2-yl)-1,2,12,12a-tetrahydrochromeno[3,4-b]furo[2,3-h]chromen-6-(6aH)-one]
CC50 at 48 h [1]: 600 ± 200 nM
HAdV DNA copy number (de novo synthesis) [2]: significant decrease
HPG incorporation ([3]; compared with a control without α-sarcin, 10-fold IC50, independent of virus concentration): approximately 30%
attenuation of HAdV-mediated endosomolysis ([3]; α-sarcin assay): did not attenuate
inhibition of HCMV replication [4]: 92.1%
